Measurements as given in PubChem BioAssay AID602210 (Sanford-Burnham Center for Chemical Genomics, 2012).
Active and inactive are the calls of the source. How the calls were made is not given here.

Test: modulators of 2-deoxyglucose-induced H9c2 death, dose response, myocardial damage modulator project, cell-based, ATPlite luminescence, rat, set 2 (AID 602210)
Conditions: H9c2 rat cardiomyoblasts, 2-deoxyglucose-induced death, 2 h
For O=C(COC(=O)c1c2c(nc3ccccc13)/C(=C/c1cccc([N+](=O)[O-])c1)CCC2)NC1CCS(=O)(=O)C1 (stereo unspecified), the IC50 was 12.9 µM (inactive).
With CCOc1ccc2nc(NC(=O)CN3CCC(n4nnc5cc(F)ccc54)CC3)sc2c1 the IC50 was 15.9 µM (inactive).
In the case of O=[N+]([O-])c1ccc(Nc2nc(N/N=C/c3cccc(F)c3)nc(N3CCCC3)n2)cc1, the IC50 is reported as 10.2 µM (inactive).
Compound COc1ccccc1NC(=O)c1cc(-c2ccc(OC)c(OC)c2)nc2ccccc12 has an IC50 of 7.39 µM.
With C[C@@H](NC(=O)c1nc[nH]c1C(=O)NCC(=O)OCc1ccccc1)c1ccccc1 the IC50 was 9.89 µM.
Compound COc1cc(/C=C/c2nnc3c4ccccc4ncn23)cc(OC)c1OC has an IC50 of 7.24 µM.
With O=C(NCC(=O)N(Cc1cccs1)C(C(=O)NC1CCCCC1)c1ccco1)c1cccs1 (stereo unspecified) the IC50 was 17 µM (inactive).
O=C(C[C@H]1C/C=C\CC[C@H](Cc2ccc(F)cc2)C(=O)O[C@H](c2ccccc2)CNC1=O)N[C@H](CO)Cc1ccccc1 showed an IC50 of 7.55 µM.
For O=C(COC(=O)c1cc(-c2cccnc2)nc2ccccc12)Nc1ccc(F)cc1F, the IC50 was 32.5 µM (inactive).
COc1cc2c(C#CCCCO)c(-c3ccsc3)oc(=O)c2cc1OC gave an IC50 of 5.66 µM.
In the case of Cc1nn(-c2ccccc2)c(C)c1/C=N/NC(=O)c1cc(C(C)(C)C)[nH]n1, the IC50 is reported as 44.7 µM (inactive).
In the case of Cc1cccc(NC(=O)c2nc[nH]c2C(=O)NCCCNC(=O)c2[nH]cnc2C(=O)Nc2cccc(C)c2)c1, the IC50 is reported as > 79 µM (inactive).
For COc1ccc(N(CC(=O)N/N=C/c2cccs2)S(=O)(=O)c2ccc(OC)c(OC)c2)cc1, the IC50 was 28 µM (inactive).
For O=S(=O)(c1ccccc1)N1CCN(c2nc(-c3cccnc3)nc3ccccc23)CC1, the IC50 was 12 µM (inactive).
With Cc1[nH]c2ccccc2c1/C=N/NC(=O)c1cc(-c2cccs2)[nH]n1 the IC50 was 5.8 µM.
In the case of COc1ccc(C(=O)O/N=C(/c2ccccc2)c2ccncc2)cc1OC, the IC50 is reported as 15.9 µM (inactive).
For O=C(CNC(=O)c1[nH]cnc1C(=O)NC(c1ccccc1)c1ccccc1)OCc1ccccc1, the IC50 was 22.3 µM (inactive).
With C[C@H](CO)N1C[C@H](C)[C@@H](CN(C)S(=O)(=O)c2ccccc2)Oc2ccc(NC(=O)Nc3ccccc3)cc2C1=O the IC50 was 36.2 µM (inactive).
For CCCOc1ccc2[nH]c(C(=O)N/N=C/c3cc(OC)c(OC)c(OC)c3)cc2c1, the IC50 was > 79 µM (inactive).
With COC(=O)C1=C(C)N(CCc2ccc(OC)cc2)C(=O)C1 the IC50 was 33.5 µM (inactive).
Work on CC(=O)Nc1ccc(-c2csc(NC(=O)Nc3ccccc3)n2)cc1 yielded an IC50 of 1.94 µM.
For CCOc1ccccc1Nc1nnc(SCc2nnc(-c3cc(OC)c(OC)c(OC)c3)o2)s1, the IC50 was 12.8 µM (inactive).
For Cc1nc(N2CCN(c3ccccn3)CC2)c2c(C)c(C(=O)Nc3ccccc3F)sc2n1, the IC50 was 16.4 µM (inactive).
NC(=O)c1nsc(C(=O)N(c2ccccc2F)C(C(=O)NCc2ccccc2)c2ccc(O)cc2)c1N (stereo unspecified) showed an IC50 of 3.04 µM.
In the case of COCCCN(Cc1ccco1)C(=O)Cn1ncc2c([nH]c3ccccc32)c1=O, the IC50 is reported as 25.5 µM (inactive).
With C[C@H](CO)N1C[C@H](C)[C@@H](CN(C)S(=O)(=O)c2cccs2)Oc2ccc(NC(=O)Nc3ccccc3)cc2C1=O the IC50 was > 79 µM (inactive).
With O=C(COc1cccc(NC(=O)c2cccc([N+](=O)[O-])c2)c1)c1ccc(F)cc1 the IC50 was 11.2 µM (inactive).
With CCn1c(O)c(/C=N/N=C2CCCCC2)c2cc(C3=NNC(=O)CC3)ccc21 the IC50 was 21.6 µM (inactive).
COc1cc2c(cc1OC)CN(c1nc(-c3cccnc3)nc3ccccc13)CC2 gave an IC50 of 6.71 µM.
For O=C(NCCN1CCN(c2ccccc2F)CC1)c1cccn2c(=O)c3ccccc3nc12, the IC50 was 11.7 µM (inactive).
In the case of COc1cc(C(=O)Nc2ccc(NC(=O)c3cccc(Cl)c3)nc2)cc(OC)c1OC, the IC50 is reported as > 79 µM (inactive).
For COCCCNC(=O)/C(C#N)=C1\N=C(NC(=O)c2cccs2)c2ccccc21, the IC50 was > 79 µM (inactive).
In the case of Brc1ccc(-c2nn3c(-c4ccccn4)nnc3s2)o1, the IC50 is reported as 42.3 µM (inactive).
In the case of CCOCCCNC(=O)CCC(=O)NNc1nc2ccccc2c2nc(-c3ccccc3)nn12, the IC50 is reported as 35.6 µM (inactive).
In the case of O=C(NCCc1c[nH]c2ccccc12)C(=O)NCC(c1ccco1)N1CCN(c2ccccc2F)CC1 (stereo unspecified), the IC50 is reported as > 79 µM (inactive).
With COc1cccc(-c2cnc3c(NC(C)=O)cc(-c4cc(OC)c(OC)c(OC)c4)cn23)c1 the IC50 was > 79 µM (inactive).
In the case of COc1ccc(-c2cc(C(=O)NC(C)c3ccccn3)c3ccccc3n2)cc1OC (stereo unspecified), the IC50 is reported as 13.4 µM (inactive).
For Cc1cc(C)cc(OCC(=O)Nc2cccc(-c3nc4ncccc4o3)c2)c1, the IC50 was 14.3 µM (inactive).
In the case of CC(=O)Nc1ccc(S(=O)(=O)N(Cc2cccnc2)Cc2cc3ccccc3[nH]c2=O)cc1, the IC50 is reported as 5.82 µM.
For COc1ccc(-c2cc(-c3nnc(COC(=O)C4CC4C)o3)c3ccccc3n2)cc1OC (stereo unspecified), the IC50 was 10.3 µM (inactive).
CCOc1ccc(C(C(=O)NC2CCCC2)N(C(=O)c2snc(C(N)=O)c2N)c2cccc(O)c2)cc1 (stereo unspecified) gave an IC50 of 6.74 µM.
For CC1(C)CC(=O)C2=C(C1)N(CCN1CCOCC1)C1=C(C(=O)CC(C)(C)C1)C2c1ccc(Cl)cc1, the IC50 was 39.1 µM (inactive).
With COc1cccc(-c2nn(-c3ccccc3)cc2C(=O)Nc2nccs2)c1 the IC50 was 16.3 µM (inactive).
In the case of COc1cccc(Nc2nc(-c3sc(NC(=O)c4ccco4)nc3C)cs2)c1, the IC50 is reported as 9.04 µM.
With O=C(Nc1cccc(Cl)c1)c1nc[nH]c1C(=O)NCCCNC(=O)c1[nH]cnc1C(=O)Nc1cccc(Cl)c1 the IC50 was > 79 µM (inactive).
In the case of CC(C)(C)OC(=O)NCc1ccc(NC(=O)c2nc[nH]c2C(=O)NCCCCCCNC(=O)c2[nH]cnc2C(=O)Nc2ccc(CNC(=O)OC(C)(C)C)cc2)cc1, the IC50 is reported as > 79 µM (inactive).
In the case of CCOC(=O)C1CCN(c2cc3c(cc2NC(=O)c2ccccc2)n(C)c(=O)n3C)CC1, the IC50 is reported as 10 µM.
Work on Cc1ccc(-c2csc(N3CCC[C@@H]3C(=O)NCCn3c(-c4ccncc4)nc4ccccc43)n2)cc1 yielded an IC50 of 8.85 µM.
With CC(C)C1Nc2ccc(C(=O)N3CCN(c4ccccn4)CC3)cc2NC1=O (stereo unspecified) the IC50 was > 79 µM (inactive).
Compound CCN(CC(=O)Nc1ccc(OC)cc1)C(=O)c1cc(-c2cccs2)nn1-c1ccccc1 has an IC50 of 7.55 µM.
For CC(=O)Nc1cccc(NC(=O)c2cc(-c3cccnc3)nc3ccc(Cl)cc23)c1, the IC50 was > 79 µM (inactive).
For COc1cc(-c2cc(NC=O)c3ncc(-c4ccccc4)n3c2)cc(OC)c1OC, the IC50 was > 79 µM (inactive).
In the case of Clc1ccccc1-c1nc(N/N=C/c2cccnc2)c2ccccc2n1, the IC50 is reported as 18.6 µM (inactive).
With NC(=O)c1nsc(C(=O)N(c2ccccc2)C(C(=O)NC2CCCC2)c2ccc3ncccc3c2)c1N (stereo unspecified) the IC50 was 6.5 µM.
In the case of CCOC(=O)c1nn(-c2cccc(OC)c2)c2nc(Nc3ccccc3)cc(=O)n12, the IC50 is reported as > 79 µM (inactive).
For O=C(NCCc1ccccc1Cl)c1ccc2nc3ccccc3c(=O)n2c1, the IC50 was 28.7 µM (inactive).
For CC(C)(C)OC(=O)C[C@H]1C/C=C\C[C@H](CC(=O)N[C@H](CO)Cc2ccccc2)C(=O)N[C@H](Cc2ccccc2)COC1=O, the IC50 was 59.9 µM (inactive).
For COc1cc(C(=O)Nc2ccc(NC(=O)c3ccco3)nc2)cc(OC)c1OC, the IC50 was 38.5 µM (inactive).
With COc1cccc(-c2cnc3c(NC=O)cc(-c4cc(OC)c(OC)c(OC)c4)cn23)c1 the IC50 was 14.2 µM (inactive).
With COc1ccc(C(=O)Nc2cc(C)nn2-c2nc3ccccc3[nH]2)c(OC)c1 the IC50 was 16.1 µM (inactive).
With COC(=O)c1ccc(C(NC(=O)OCc2ccccc2)/C(C)=C/[C@@H](C)C(=O)NCc2ccc(OC)c(OC)c2)cc1 (stereo partly specified) the IC50 was 23.8 µM (inactive).
For CC(=O)Nc1cc(-c2ccccc2)cn2c(-c3cccc(C(C)=O)c3)cnc12, the IC50 was 16 µM (inactive).
With CCOC(=O)N1CCN(C(=O)CSc2nc3c(cnn3-c3ccc(C)cc3)c(=O)[nH]2)CC1 the IC50 was > 79 µM (inactive).
With COc1cc(/C=N/NC(=O)c2ccncc2)ccc1OC(=O)c1ccccc1Cl the IC50 was 15.8 µM (inactive).
In the case of COc1ccccc1OCC(=O)N/N=C/c1cccc2cccnc12, the IC50 is reported as > 79 µM (inactive).
For CC1Nc2ncnc(N3CCN(c4ccccc4)CC3)c2N(Cc2ccc(Cl)cc2)C1=O (stereo unspecified), the IC50 was 21.4 µM (inactive).
In the case of COc1ccc(C(=O)Nc2cccc(/C(C)=N/NC(=O)c3ccc([N+](=O)[O-])c(C)c3)c2)cc1OC, the IC50 is reported as 18.7 µM (inactive).
In the case of O=c1c2ccccc2nc(CSc2ncnc3nc[nH]c23)n1-c1ccc(Cl)c(Cl)c1, the IC50 is reported as 14.7 µM (inactive).
CC(=O)c1ccc(-c2ccc(C(=O)Nc3nc(-c4ccccn4)cs3)o2)cc1 showed an IC50 of 5.91 µM.
For CCC(=O)N1CCN(c2ccccc2NC(=O)c2ccc(-c3cccc([N+](=O)[O-])c3)o2)CC1, the IC50 was > 79 µM (inactive).
For Cc1ccc(-n2cc(-c3ccccc3)c3c(N4CCOCC4)ncnc32)cc1, the IC50 was 8.37 µM.
For CC(C(=O)NC1CCCC1)N(C(=O)Cn1nnc(-c2ccc(F)cc2)n1)c1ccccc1F (stereo unspecified), the IC50 was 11.3 µM (inactive).
With CC(C)(C)NC(=O)c1cccc(NC(=O)c2ccc(NC(=O)c3ccco3)cc2)c1 the IC50 was 18.9 µM (inactive).
With CC(C)(C)OC(=O)C[C@@H]1C/C=C\C[C@@H](CC(=O)N[C@@H](CO)Cc2ccccc2)C(=O)NC[C@@H](c2ccccc2)OC1=O the IC50 was 22.6 µM (inactive).
For OC1CCN(c2c3c(nc4cc(-c5cccc(F)c5)nn24)CCCC3)CC1, the IC50 was 23.8 µM (inactive).
For COc1ccc(-c2oc(=O)c3cc(OC)c(OC)cc3c2C#CCCO)cc1, the IC50 was 21.7 µM (inactive).
In the case of CCOC(=O)c1c(C)[nH]c(O)c1C=Nc1ccc(Cl)cc1, the IC50 is reported as 46.7 µM (inactive).
In the case of COc1cc2c(C#CCCO)c(-c3ccsc3)oc(=O)c2cc1OC, the IC50 is reported as 6.34 µM.
In the case of CC(=O)c1ccc(-c2[nH]c3ccccc3c2CCN2C(=O)c3ccccc3C2=O)cc1, the IC50 is reported as > 79 µM (inactive).
In the case of Cc1ccccc1N(C(=O)c1snc(C(N)=O)c1N)C(C(=O)NCc1ccccc1)c1ccc(O)cc1 (stereo unspecified), the IC50 is reported as 18 µM (inactive).
With CCOC(=O)C1=C(CC)Nc2ccccc2N=C1NC(=O)c1ccc(S(=O)(=O)N(C)C)cc1 the IC50 was > 79 µM (inactive).
For CCOC(=O)c1c2c3c(cccc3n(C)c1=O)C(=O)c1ccccc1-2, the IC50 was 15.8 µM (inactive).
With O=C(NCc1ccco1)c1cc(-c2cccnc2)nc2ccc(Cl)cc12 the IC50 was > 79 µM (inactive).
For COc1cc(NC(=O)c2cc([N+](=O)[O-])ccc2NC(=O)CN2CCN(c3ccccn3)CC2)cc(OC)c1, the IC50 was > 79 µM (inactive).
With O=C(C[C@@H]1C/C=C/CC[C@@H](Cc2ccc(F)cc2)C(=O)O[C@@H](c2ccccc2)CNC1=O)NCCO the IC50 was 27.5 µM (inactive).
For CCC(=O)Oc1cccc(C(=O)Nc2ccc(-c3nnc(-c4ccco4)o3)cc2)c1, the IC50 was > 79 µM (inactive).
